# Experimental data published in patent US20250161238A1, “NMDAR Antagonists Prevent Ageing and Aging-Associated Conditions and Diseases Through Increasing 20S Proteasome Activity” (priority 2022, published 2025).
# What was measured:
# [1] = target: T1, proteasome (Homo sapiens, UniProt P28072+P28074+Q99436); experiment: In-Cell Fluorogenic Proteasome Assay, HepG2; assay type: cell-based; design: endogenous in cells; host or cells: HepG2 (A9), T98G (A10), digitonin/Tween-permeabilised whole cells; settings: for trypsin, chemotrypsin and caspase-like proteasome activities: whole HepG2 cell
# T1 sequence (P28074 60-263): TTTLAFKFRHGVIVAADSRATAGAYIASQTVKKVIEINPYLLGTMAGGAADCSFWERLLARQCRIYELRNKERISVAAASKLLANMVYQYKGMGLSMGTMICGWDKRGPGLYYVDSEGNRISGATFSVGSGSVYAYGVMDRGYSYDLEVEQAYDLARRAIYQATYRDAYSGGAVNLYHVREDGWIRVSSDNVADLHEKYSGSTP
# T1 sequence (Q99436 44-277): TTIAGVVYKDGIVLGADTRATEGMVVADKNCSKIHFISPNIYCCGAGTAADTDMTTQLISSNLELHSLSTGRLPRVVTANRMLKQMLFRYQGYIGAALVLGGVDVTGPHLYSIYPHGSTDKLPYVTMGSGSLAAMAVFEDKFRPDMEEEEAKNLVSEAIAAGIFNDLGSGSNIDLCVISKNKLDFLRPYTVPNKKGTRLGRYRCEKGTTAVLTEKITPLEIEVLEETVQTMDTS
# T1 sequence (P28072 1-239): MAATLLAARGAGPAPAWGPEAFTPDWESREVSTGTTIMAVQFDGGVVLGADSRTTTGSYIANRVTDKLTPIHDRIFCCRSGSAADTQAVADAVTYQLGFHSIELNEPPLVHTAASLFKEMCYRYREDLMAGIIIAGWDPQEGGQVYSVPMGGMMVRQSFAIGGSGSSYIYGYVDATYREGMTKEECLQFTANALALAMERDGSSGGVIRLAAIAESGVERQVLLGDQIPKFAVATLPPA
# Procedure: (§1) For a 96-well plate format, 8×10^3 cells per well were seeded. 24 hours later medium was changed with NMDAR blocker containing medium. Two hours later 100 μl of 2× flourescence cell buffer: (1 ml 1M tris hcl ph: 7.5, 500 μl 1M KCL, 200 μl […], 200 μl 0.1M MgCL2, 50 μl % 0.2 tween 20, 75 μl digitonin 20 mg/ml in DMSO ChemCruz cat no: sc-280675, 10 μl flourescence substrates including Suc-LLVY-AMC, Z-LLE-AMC, and Ac-RLR-AMC Ac-RLR-AMC, 8.1 ml H2O). After incubation at room temperature for a 5 minutes the flourescence of each sample were measured in a flourescence spectrometer (Biotek instrument-Synergy HT).
# [2] = tested on: primary human fibroblast cells; experiment: Nile red staining of lipid droplets in primary fibroblast cells; assay type: cell-based; settings: late passage
# From the text: In another experiment, the amount of intracellular lipid droplets as indicator of fat metabolism were investigated in senescent cells with nile red staining in cells at the late passage. Nile red is a lipophilic stain which stain intracellular lipid droplets and proteins. Lipid droplets are highly dinamic cellular organelles involved in the storage and the metabolism of neutral lipids.
# [3] = target: T2, 26S proteasome (Homo sapiens, UniProt P28072+P28074+Q99436); experiment: Proteasome activity assay with cell lysate and fluorogenic substrates; assay type: biochemical; settings: cell lysate
# T2 construct: endogenous in cells; host or cells: crude cell lysate
# T2 sequence (P28074 60-263): T1 sequence (P28074 60-263)
# T2 sequence (Q99436 44-277): T1 sequence (Q99436 44-277)
# T2 sequence (P28072 1-239): T1 sequence (P28072 1-239)
# Procedure: The activity of the 26S proteasome was measured by following steps. Aliquots of 2×10^6 cells were lysed with glass beads (Sigma) at 4° C. in lysis buffer containing 50 mM Tris-HCl (pH 7.5), 5 mM MgCl2, 1 mM DTT and 250 mM sucrose, and the protein concentration of cleared supernatants was measured by BCA protein assay reagent (Pierce). Ten micrograms of total protein was diluted with 26S proteasome assay buffer in a 96-well microtiter plate (BD Falcon), and incubated with fluorogenic substrates including Suc-LLVY-AMC, Z-LLE-AMC, and Ac-RLR-AMC Ac-RLR-AMC (Cayman-U.S.A.) were used to measure chymotrypsin, caspase-, and trypsin-like proteasome activity, respectively. Fluorescence released by AMC fluorescence was monitored on a microplate fluorometer (Biotek instrument-synergy HT) every 5 min at 37° C. for 1 h.
# [4] = target: T1, proteasome; experiment: In-Cell Fluorogenic Proteasome Assay, T98G; assay type: cell-based; design: endogenous in cells; host or cells: T98G (A10), digitonin/Tween-permeabilised whole cells; settings: whole T98G cell
# Procedure: as §1
# [5] = tested on: primary human fibroblast cells; experiment: MTT assay of primary human fibroblast cells; assay type: cell-based; settings: cells set up at passage 8
# From the text: (§2) First, primary human fibroblast cells were divided into two as control and NMDAR added group at the 4th passage and followed under the same condution until the 10th passage.
# Cellular senescence is defined as a complete and irreversible loss of replicative capacity in primary somatic cells. (hayflick 1961). Therefore, MTT assay is used to measure cellular metabolic activity as an indicator of cell viability and proliferation in cells set up at passage 8.
# [6] = tested on: primary human fibroblast cells; experiment: SA β-gal staining of primary human fibroblast cells; assay type: cell-based; settings: passage 10
# From the text: as §2
# Therefore cellular senescence were investigated by SA β-gal staining in cells at passage 10.
# [7] = tested on: mice; experiment: Weight test (forelimb grip) in aged mice; assay type: in vivo; settings: mice at 22 months
# From the text: Another grip test that measures muscle strength more finely is forelimb grip strength test. Many biomarkers related to aging have been identified in human. Importantly, the grip tests performed on humans has been defined as a highly predicitive indicator that can show disabilities, diseases and deaths that may occur due to aging (Iconaru et al., 2018; Sousa-Santos and Amaral, 2017) In this test a mouse is held by the middle base of the tail and lower it to allow it to grasp the weight which is a ball of tangled fine gauge stainless steel wire. This test is carried out by increasing the weight, investigating the weight that the mouse can carry or keeping the weight constant and how long the mouse can carry the weight.
# The experimental protocols were approved by the Ethics Committee of Ankara University, Faculty of Medicine, Medical Sciences Experimental Research and Application Center (Date: Dec. 11, 2019 and Decision number: 2019-22-189). Adult (12-mounts-old) C57BL/6 mice (5 for each group) were used. The mice were housed at the Experimental Animal Research Laboratory of Ankara University Faculty of Medicine. […] Tests related to locomotor activities of the mice were recorded and available.
# Weight test use to measure muscle strength (Deacon, 2013). […] The experiment was recorded by camera for a maximum of 5 minutes. Total griping time was evaluated.
SMILES,"trypsin, chemotrypsin and caspase-like proteasome activities [1]","chemotrypsin activity of proteasome ([1]; whole cell, substance alone)",Nile red flourescence (intracellular lipid droplets) [2],"trypsin, chemotrypsin and caspase-like proteasome activity [3]","trypsin, chemotrypsin and caspase-like proteasome activities [4]",proliferation (MTT assay) [5],"SA β-gal stained cells, control cells compared to treated cells [6]",chemotrypsin activity of proteasome in the presence of RA190 ([1]; HepG2),forelimb grip: time holding a fixed weight [7]
"CNC1(c2ccccc2Cl)CCCCC1=O (stereo not drawn) [ketamin, 2-(2-chlorophenyl)-2-(methylamino)-cyclohexanone]",increased,depending on the amount of the drugs,more flourescence,no effects,increased,higher,2.6 fold,–,–
"CC12CC3CC(C)(C1)CC(N)(C3)C2 [memantine, 3,5-dimethyladamantan-1-amine]",increased,–,more flourescence,no effects,increased,higher,1.8 fold,very similar to the ketamin results,four times longer
